Test results published in patent US20260232827A1, “ANTIBODY-DRUG CONJUGATES TARGETING NAPI2B AND METHODS OF USE” (Zymeworks BC Inc., priority 2023, published 2026).

Assays:
Calu-3 (lung cancer) = test: In vitro cytotoxicity of camptothecin analogues (CellTiter-Glo); format: cell-based; details: Homo sapiens, Calu-3, 96 h, read-out: pIC50 Calu-3 (converted)
Procedure: (§1) Cytotoxicity of the camptothecin analogues was assessed in vitro as follows.
(§2) In vitro potency was assessed on multiple cancer cell lines: SK-BR-3 (breast cancer), SKOV-3 (ovarian cancer), Calu-3 (lung cancer), ZR-75-1 (breast cancer) and MDA-MB-468 (breast cancer). Serial dilutions of camptothecin analogues were prepared in RPMI 1640+10% FBS, and 20 μL of each dilution was added to 384-well plates. Cells cultured in log-phase growth were detached by brief incubation in 0.05% Trypsin and resuspended in respective culturing media at 20,000 cells/mL (with the exception of ZR-75 cells, which were resuspended at 10,000 cells/mL). 50 μL of cell suspension was then added to the plates containing test articles. Cells were incubated with test articles for 4 d at 37° C. (with the exception of ZR-75 cells, which were incubated for 5 d). Growth inhibition was assessed by CellTiter-Glo® (Promega Corporation, Madison, WI) and luminescence was measured on a plate reader. IC50 values were determined by GraphPad Prism (GraphPad Software, San Diego CA).

[1] = tested on: MDA-MB-468 (breast cancer); test: as above; format: cell-based; details: Homo sapiens, MDA-MB-468, 96 h, read-out: pIC50 MDA-MB-468 (converted)
Procedure: as §1, §2

SK-BR-3 (breast cancer) = test: as above; format: cell-based; details: Homo sapiens, SK-BR-3, 96 h, read-out: pIC50 SKBR-3 (converted)
Procedure: as §1, §2

SKOV-3 (ovarian cancer) = test: as above; format: cell-based; details: Homo sapiens, SK-OV-3, 96 h, read-out: pIC50 SKOV-3 (converted)
Procedure: as §1, §2

ZR-75-1 (breast cancer) = test: as above; format: cell-based; details: Homo sapiens, ZR-75-1, 120 h, read-out: pIC50 ZR-75 (converted)
Procedure: as §1, §2

[2] = tested on: Construct 1 (chimeric human NaPi2b, region 239-259); test: Binding region mapping, flow cytometry on transfected HEK293-6e cells; details: 24 hours at 4° C.
Source text: (§3) NaPi2b constructs containing deletions in the main extracellular loop of human NaPi2b, as well as chimeric NaPi2b/NaPi2c constructs concerning this main loop, were generated.
(§4) As a complementary strategy, two additional constructs were designed in which the relevant region of the main loop was deleted such as to mimic NaPi2c/NaPi2a main extracellular loop (Constructs 6-7 in Table 52.1). Clones were generated at GenScript Biotech (Piscataway, NJ).
(§5) Constructs were expressed in HEK293-6e cells as follows. Cells were maintained under standard culture conditions (37° C./5% CO2) with shaking at 110 rpm for suspension and cultured in FreeStyle™ 293 Expression Medium (Thermo Fisher Scientific, Waltham, MA) supplemented with 1% fetal bovine serum (Thermo Fisher Scientific, Waltham, MA) and 1× Penicillin-Streptomycin (Thermo Fisher Scientific, Waltham, MA). Cells were transfected with clones expressing the constructs listed in Table 52.1, at 1 μg of DNA per 1 million cells, using 293Fectin™ Transfection Reagent (Thermo Fisher Scientific, Waltham, MA) and Opti-MEM™ I Reduced Serum Medium (Thermo Fisher Scientific, Waltham, MA), and incubated for 24 hours under standard culture conditions (37° C./5% CO2/110 rpm). Following transfection, cells were seeded at 50,000 cells/well in conical-bottom 96-well plates and treated with a serial dilution of test antibody for 24 hours at 4° C. to prevent internalization. Cells were treated with final concentrations of all humanized antibodies of 200, 20, or 2 nM. Cells were treated with final concentrations of the reference anti-NaPi2a rabbit antibody of 50, 5, or 0.5 nM. […] Following incubation and washing, fluorescence was detected by flow cytometry on a BD LSRFortessa™ Cell Analyzer (BD Biosciences, Franklin Lake, NJ) with 1,000 minimum events collected per well. […] Background-subtracted AF647 Mean Fluorescence Intensity (MFI) values were calculated by subtracting the average MFI of three technical replicates of unstained (no primary antibody) cells.

[3] = tested on: Construct 2 (chimeric human NaPi2b, region 280-301); test: as above; details: 24 hours at 4° C.
Source text: as §3, §4, §5

Row | Molecule | IC50 (Calu-3 (lung cancer)) [nM] | IC50 [1] [nM] | IC50 (SK-BR-3 (breast cancer)) [nM] | IC50 (SKOV-3 (ovarian cancer)) [nM] | IC50 (ZR-75-1 (breast cancer)) [nM] | Background-Subtracted AF647 Mean Fluorescence Intensity ([2]; antibody 2.0 nM) | Background-Subtracted AF647 Mean Fluorescence Intensity ([2]; antibody 20.0 nM) | Background-Subtracted AF647 Mean Fluorescence Intensity ([2]; antibody 200.0 nM) | Background-Subtracted AF647 Mean Fluorescence Intensity ([3]; antibody 20.0 nM) | Background-Subtracted AF647 Mean Fluorescence Intensity ([3]; antibody 200.0 nM)
1 | CC[C@@]1(O)C(=O)OCc2c1cc1n(c2=O)Cc2c-1nc1cc(F)c(N)cc1c2CN=[N+]=[N-] [Compound 152, (S)-9-amino-11-(azidomethyl)-4-ethyl-8-fluoro-4-hydroxy-1,12-dihydro-14H-pyrano[3′,4′:6,7]indolizino[1,2-b]quinoline-3,14(4H)-dione] | 1.48 | 5.01 | 3.24 | 2.88 | – | – | – | – | – | –
2 | CC[C@@]1(O)C(=O)OCc2c1cc1n(c2=O)Cc2c-1nc1cc(F)c(C)cc1c2CN1CCN(c2ccc(N)cc2)CC1 [Compound 108, (S)-11-((4-(4-aminophenyl)piperazin-1-yl)methyl)-4-ethyl-8-fluoro-4-hydroxy-9-methyl-1,12-dihydro-14H-pyrano[3′,4′:6,7]indolizino[1,2-b]quinoline-3,14(4H)-dione] | 40.7 | 47.9 | 29.5 | 55 | 18.6 | – | – | – | – | –
3 | CC[C@@]1(O)C(=O)OCc2c1cc1n(c2=O)Cc2c-1nc1cc(F)c(C)cc1c2CN1CCO[C@@H](CO)C1 [Compound 113, (S)-4-ethyl-8-fluoro-4-hydroxy-11-(((R)-2-(hydroxymethyl)morpholino)methyl)-9-methyl-1,12-dihydro-14H-pyrano[3′,4′:6,7]indolizino[1,2-b]quinoline-3,14(4H)-dione] | 3.02 | 3.39 | 1.95 | 4.27 | 2.19 | – | – | – | – | –
4 | CC[C@@]1(O)C(=O)OCc2c1cc1n(c2=O)Cc2c-1nc1cc(F)c(C)cc1c2CNS(N)(=O)=O [Compound 131, (S)-((4-ethyl-8-fluoro-4-hydroxy-9-methyl-3,14-dioxo-3,4,12,14-tetrahydro-1H-pyrano[3′,4′:6,7]indolizino[1,2-b]quinolin-11-yl)methyl)sulfamide] | 9.12 | 9.12 | 1.05 | – | 0.955 | – | – | – | – | –
5 | MX35 [MX35 (v18992)] | – | – | – | – | – | 1,893 | 1,816 | 1,718 | 1,246 | 1,356
6 | CC[C@@]1(O)C(=O)OCc2c1cc1n(c2=O)Cc2c-1nc1cc(F)c(C)cc1c2CNS(C)(=O)=O [Compound 122, (S)-N-((4-ethyl-8-fluoro-4-hydroxy-9-methyl-3,14-dioxo-3,4,12,14-tetrahydro-1H-pyrano[3′,4′:6,7]indolizino[1,2-b]quinolin-11-yl)methyl)methanesulfonamide] | 3.72 | 1.1 | 1.12 | 9.12 | 1.29 | – | – | – | – | –
7 | CC[C@@]1(O)C(=O)OCc2c1cc1n(c2=O)Cc2c-1nc1cc(F)c(OC)cc1c2CNC(=O)NCc1ccc(N)cc1 [Compound 135, (S)-1-(4-aminobenzyl)-3-((4-ethyl-8-fluoro-4-hydroxy-9-methoxy-3,14-dioxo-3,4,12,14-tetrahydro-1/- pyrano[3′,4′:6,7]indolizino[1,2-b]quinolin-11-yl)methyl)urea] | – | 10.7 | 12.3 | – | 13.2 | – | – | – | – | –
8 | CC[C@@]1(O)C(=O)OCc2c1cc1n(c2=O)Cc2c-1nc1cc(F)c(C)cc1c2CN1C2CCC1(CO)CC2 [Compound 121] | 0.145 | 0.269 | 0.148 | 0.195 | – | – | – | – | – | –
9 | CC[C@@]1(O)C(=O)OCc2c1cc1n(c2=O)Cc2c-1nc1cc(F)c(OC)cc1c2CNS(=O)(=O)c1ccc(N)cc1 [Compound 128, (S)-4-amino-N-((4-ethyl-8-fluoro-4-hydroxy-9-methoxy-3,14-dioxo-3,4,12,14-tetrahydro-1H-pyrano[3′,4′:6,7]indolizino[1,2-b]quinolin-11-yl)methyl)benzenesulfonamide] | – | 8.32 | 5.25 | 18.2 | 4.27 | – | – | – | – | –
10 | CC[C@@]1(O)C(=O)OCc2c1cc1n(c2=O)Cc2c-1nc1cc(F)c(C)cc1c2CN1CCSCC1CO (stereo partly drawn) [Compound 114, (4S)-4-ethyl-8-fluoro-4-hydroxy-11-((3-(hydroxymethyl)thiomorpholino)methyl)-9-methyl-1,12-dihydro-14H-pyrano[3′,4′:6,7]indolizino[1,2-b]quinoline-3,14(4H)-dione] | 0.0933 | 0.417 | 0.107 | 0.178 | – | – | – | – | – | –
11 | CC[C@@]1(O)C(=O)OCc2c1cc1n(c2=O)Cc2c-1nc1cc(F)c(C)cc1c2CNS(=O)(=O)c1ccccc1 [Compound 125, (S)-N-((4-ethyl-8-fluoro-4-hydroxy-9-methyl-3,14-dioxo-3,4,12,14-tetrahydro-1H-pyrano[3′,4′:6,7]indolizino[1,2-b]quinolin-11-yl)methyl)benzenesulfonamide] | 2.82 | 3.8 | 1.32 | 7.08 | 1.32 | – | – | – | – | –
12 | CC[C@@]1(O)C(=O)OCc2c1cc1n(c2=O)Cc2c-1nc1cc(F)c(C)cc1c2CNS(=O)(=O)c1ccc(N)cc1 [Compound 127, (S)-4-amino-N-((4-ethyl-8-fluoro-4-hydroxy-9-methyl-3,14-dioxo-3,4,12,14-tetrahydro-1H-pyrano[3′,4′:6,7]indolizino[1,2-b]quinolin-11-yl)methyl)benzenesulfonamide] | 9.33 | 3.8 | 3.31 | 14.5 | 5.25 | – | – | – | – | –
